Reference: the supplement of paper PMC9663587

Legend:
[1] = compound: CN1CC[C@H](c2c(O)cc(O)c3c(=O)cc(-c4ccccc4Cl)oc23)[C@H](O)C1 [Flavopiridol]; test: increase in dead-cell fraction, 72 h; higher = more death;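 note: breast cancer cell lines in 384-well plates, stained with Hoechst plus LIVE/DEAD far red dye and imaged, cells above an LDR intensity threshold counted dead, Hoechst-negative corpses included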
[2] = compound: CN(C)C/C=C/C(=O)Nc1ccc(C(=O)Nc2cccc(Nc3ncc(Cl)c(-c4c[nH]c5ccccc45)n3)c2)cc1 [THZ1]; test: as above
[3] = compound: CN(C)C/C=C/C(=O)Nc1ccc(C(=O)N2CCC[C@@H](Nc3ncc(Cl)c(-c4c[nH]c5ccccc45)n3)C2)cc1 [THZ531]; test: as above
[4] = compound: CCc1cnn2c(NCc3ccc[n+]([O-])c3)cc(N3CCCC[C@H]3CCO)nc12; test: as above
[5] = compound: CC(=O)c1c(C)c2cnc(Nc3ccc(N4CCNCC4)cn3)nc2n(C2CCCC2)c1=O; test: as above
[6] = compound: CCNC(=O)c1noc(-c2cc(C(C)C)c(O)cc2O)c1-c1ccc(CN2CCOCC2)cc1 [Luminespib/NVP-AUY922]
[7] = compound: CN1CCN(CCOc2cc(OC3CCOCC3)c3c(Nc4c(Cl)ccc5c4OCO5)ncnc3c2)CC1 [Saracatinib/AZD0530]
[8] = compound: CN(C)C/C=C/C(=O)Nc1ccc(O[C@@H]2CCC[C@@H](Nc3ncc(Cl)c(-c4c[nH]c5ccccc45)n3)C2)cc1 [BSJ-01-175]
[9] = compound: CN(C)C/C=C/C(=O)NC1=CC=C(C=C1)C(=O)NC2=CC=CC(=C2)NC3=NC=NC(=C3)C4=CNC5=CC=CC=C54 [THZ-P1-2]
[10] = compound: Cc1cc(Nc2ncc(Cl)c(Nc3ccccc3S(=O)(=O)C(C)C)n2)c(OC(C)C)cc1C1CCNCC1 [Ceritinib/LDK378]
[11] = compound: CCCCOc1c(C(=O)c2c(F)cc(C)cc2F)c[nH]c2nncc1-2
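Throughout, for GR50, 72 h: breast cancer and non-malignant breast epithelial cell lines, Deep Dye Drop or Dye Drop imaging, nine half-log doses, GR normalized to time-zero plates and DMSO-only controls.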

Cell Line: SUM229PE
- increase in dead-cell fraction ([1]; 0.003162 µM): 0.0065
- increase in dead-cell fraction ([1]; 0.01 µM): -0.0032
- increase in dead-cell fraction ([1]; 0.03162 µM): -0.003
- increase in dead-cell fraction ([1]; 0.1 µM): 0.0189
- increase in dead-cell fraction ([1]; 0.3162 µM): 0.0897
- increase in dead-cell fraction ([1]; 1 µM): 0.0752
- increase in dead-cell fraction ([2]; 0.0001 µM): 0.0012
- increase in dead-cell fraction ([2]; 0.0003162 µM): 0.0126
- increase in dead-cell fraction ([2]; 0.001 µM): 0.0025
- increase in dead-cell fraction ([2]; 0.003162 µM): 0.0048
- increase in dead-cell fraction ([2]; 0.01 µM): 0.0291
- increase in dead-cell fraction ([2]; 0.03162 µM): 0.0152
- increase in dead-cell fraction ([2]; 0.1 µM): 0.0835
- increase in dead-cell fraction ([2]; 0.3162 µM): 0.124
- increase in dead-cell fraction ([2]; 1 µM): 0.127
- increase in dead-cell fraction ([3]; 0.0001 µM): 0.0065
- increase in dead-cell fraction ([3]; 0.0003162 µM): 0.0019
- increase in dead-cell fraction ([3]; 0.001 µM): -0.0006
- increase in dead-cell fraction ([3]; 0.003162 µM): 0.0039
- increase in dead-cell fraction ([3]; 0.01 µM): -0.0022
- increase in dead-cell fraction ([3]; 0.03162 µM): -0.005
- increase in dead-cell fraction ([3]; 0.1 µM): -0.0018
- increase in dead-cell fraction ([3]; 0.3162 µM): 0.0175
- increase in dead-cell fraction ([3]; 1 µM): 0.0884
- increase in dead-cell fraction ([4]; 0.0001 µM): -0.0001
- increase in dead-cell fraction ([4]; 0.0003162 µM): -0.0086
- increase in dead-cell fraction ([4]; 0.001 µM): 0.0057
- increase in dead-cell fraction ([4]; 0.003162 µM): -0.0015
- increase in dead-cell fraction ([4]; 0.01 µM): 0.0106
- increase in dead-cell fraction ([4]; 0.03162 µM): 0.0583
- increase in dead-cell fraction ([4]; 0.1 µM): 0.0925
- increase in dead-cell fraction ([4]; 0.3162 µM): 0.0682
- increase in dead-cell fraction ([4]; 1 µM): 0.0926
- increase in dead-cell fraction ([5]; 0.0003162 µM): -0.0072
- increase in dead-cell fraction ([5]; 0.001 µM): 0.0057
- increase in dead-cell fraction ([5]; 0.003162 µM): -0.0076
- increase in dead-cell fraction ([5]; 0.01 µM): -0.0059
- increase in dead-cell fraction ([5]; 0.03162 µM): -0.0018
- increase in dead-cell fraction ([5]; 0.1 µM): -0.0045
- increase in dead-cell fraction ([5]; 0.3162 µM): -0.0032
- increase in dead-cell fraction ([5]; 1 µM): -0.0082
- increase in dead-cell fraction ([5]; 3.162 µM): 0.009
- GR50, 72 h [6]: 0.00595 µM
- GR50, 72 h [7]: 5.44 µM
- GR50, 72 h [8]: 0.0424 µM
- GR50, 72 h [9]: 5.54 µM
- GR50, 72 h [10]: 1.68 µM
- GR50, 72 h [11]: 0.0124 µM
